The text below walks through data of patent US4857537A, “Novel thiazolidine derivatives” (Ono Pharmaceutical Co., Ltd., priority 1987, dated 1989).

Square brackets hold non-standard residues; d marks the D form. Peptide text beside a SMILES is read from it. * marks the point of attachment. ξ: configuration not given here. Hydrocinnamoyl = O=C(CCc1ccccc1)*; Thz = O=C(O)[C@@H]1CSCN1; Cbz = O=C(OCc1ccccc1)*; ξPip = O=C(O)C1CCCCN1; CH2Cl = ClC*

T1 sequence (Q9XTA2 whole entry): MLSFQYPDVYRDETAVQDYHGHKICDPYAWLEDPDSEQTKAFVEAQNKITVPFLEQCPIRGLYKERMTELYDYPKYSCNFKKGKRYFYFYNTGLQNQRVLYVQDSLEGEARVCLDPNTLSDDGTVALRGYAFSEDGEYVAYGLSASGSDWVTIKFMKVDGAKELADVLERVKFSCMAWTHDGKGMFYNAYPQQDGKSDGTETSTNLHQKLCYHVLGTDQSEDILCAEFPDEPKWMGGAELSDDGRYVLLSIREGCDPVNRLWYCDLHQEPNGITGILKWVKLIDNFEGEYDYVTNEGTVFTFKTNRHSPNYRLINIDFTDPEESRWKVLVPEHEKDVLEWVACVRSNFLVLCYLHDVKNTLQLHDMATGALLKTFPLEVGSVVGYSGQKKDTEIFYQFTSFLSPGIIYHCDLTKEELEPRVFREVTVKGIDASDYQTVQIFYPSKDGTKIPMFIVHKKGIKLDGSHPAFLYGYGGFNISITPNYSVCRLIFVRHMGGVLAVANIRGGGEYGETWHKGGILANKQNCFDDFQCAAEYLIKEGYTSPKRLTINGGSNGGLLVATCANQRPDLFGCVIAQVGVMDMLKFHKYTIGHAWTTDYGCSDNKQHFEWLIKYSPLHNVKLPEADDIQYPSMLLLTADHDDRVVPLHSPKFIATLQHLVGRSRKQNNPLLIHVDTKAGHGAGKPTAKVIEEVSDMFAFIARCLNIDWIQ

The first assay has as its system prolyl endopeptidase.
Test: not given
The note with it: See J. Neurochem., 41, 69(1983); cited from earlier work.
`O=C(NCC(=O)N1CCC[C@H]1C(=O)CCl)OCc1ccccc1` [N-benzyloxycarbonyl-glycyl-L-prolyl-chloromethane] (Cbz-Gly-Pro-CH2Cl): the “inhibition of prolyl endopeptidase (in words)” value is recorded as “strongly inhibit”.

The next assay concerns the target T1, prolyl endopeptidase (Bos taurus, UniProt Q9XTA2).
T1 construct: purified from bovine brain; from tissue; host or cells: bovine brain
In words: Prolyl endopeptidase inhibitory activity in vitro. The assay is classed as biochemical, bovine.
Conditions: not given
The method, then:
Inhibitory activity of prolyl endopeptidase in vitro was measured by the following test system.
A mixed solution of 20 mM tris-HCl buffer (pH 7.5; 935 μl; containing 10 mM EDTA and 10 mM mercaptoethanol), a solution of a compound of the present invention in DMSO (10 μl) and a solution of prolyl endopeptidase which was purified from bovine brain (0.13 unit; prepared by the method described in J. Biochem., 94, 1179 (1983)) in tris-HCl buffer (15 μl) was preincubated for 15 mins at 37° C.
To the solution, 5 mM of N-benzyloxycarbonyl-glycyl-prolyl-p-nitroanilide (40 μl) in a mixture of 40% dioxane--60% water was added. Ths solution was incubated for 1 min at the same temperature.
Optical absorption (a1) at 405 nm of the solution, and optical absorption (a2) at 405 nm of the solution after more 30 mins' incubation at 37° C. were measured.
Optical absorptions (b1 and b2) of the solutions using DMSO instead of the solution of the compound of the present invention were also measured.
Inhibitory ratio was calculated by the following expression and IC50 (required concentration for 50% inhibition) was obtained (See Protein, Nucleic acid and Enzyme 25(6), 513, 1980.). [formula]
For `O=C[C@@H]1CSCN1C(=O)/C=C/c1ccc(CCCCCc2ccccc2)cc1` [1 (g), (4R)3-[4-(5-phenylpentyl)cinnamoyl]thiazolidin-4-al], the IC50 stood at 4800 nM.

The assay is the same for the next values; noted with them: in vitro; purified from bovine brain; pH 7.5, 37° C.; substrate N-benzyloxycarbonyl-glycyl-prolyl-p-nitroanilide; 405 nm; read-out: Concentration for 50% inhibition IC50.
Consider `O=C[C@@H]1CSCN1C(=O)CCCCCCCCCc1ccccc1` [1 (b), (4R)3-(10-phenyldecanoyl) thiazolidin-4-al], for which the IC50 worked out at 730 nM.
Same read-out and setting: the value for `CC(C)C(CCCCCc1ccccc1)C(=O)N1CSC[C@H]1C=O` (stereo partly drawn) [1 (c), (4R)3-(2-isopropyl-7-phenylheptanoyl)thiazolidin-7-al] was 87 nM; that for `O=C[C@@H]1CSCN1C(=O)CCCOCc1ccccc1` [1 (i), (4R)3-(4-benzyloxybutyryl) thiazolidin-4-al] was 8100 nM; that for `O=C[C@@H]1CSCN1C(=O)CCC(=O)CCCc1ccccc1` [1 (k), (4R)3-(4-oxo-7-phenylheptanoyl) thiazolidin-4-al] was 16 nM.
Still for that read-out and setting: the value for `O=C[C@@H]1CSCN1C(=O)C1CCC[C@H]1C(=O)CCc1ccccc1` (stereo partly drawn) [1 (l), (4R)3-[(2R)2-(3-phenylpropionyl)cyclopentanecarbonyl]thiazolidin-4-al] was 22 nM; that for `O=C[C@@H]1CSCN1C(=O)C1CCCCN1C(=O)CCc1ccccc1` (stereo partly drawn) [1 (n), (4R)3-[1-(3-phenylpropionyl)piperidine-2-carbonyl]thiazolidin-4-al] (Hydrocinnamoyl-[ξPip]-[Thz]-aldehyde) was 20 nM; that for `CC(C)C(NC(=O)CCCc1ccccc1)C(=O)N1CSC[C@H]1C=O` (stereo partly drawn) [1 (q), (4R)3-[2-(4-phenylbutyrylamino)-3-methylbutyryl]thiazolidin-4-al] was 5.7 nM.
For `O=C[C@@H]1CSCN1C(=O)CCC(=O)N(Cc1ccccc1)c1ccccc1` [1 (s), (4R)3-[3-(Nbenzyl-Nphenylcarbamoyl)propionyl]thiazolidin-4-al], the IC50 turned out to be 6.8 nM.
Still for that read-out and setting: for `COc1ccc(CNC(=O)CCC(=O)N2CSC[C@H]2C=O)cc1` [1 (t), (4R)3-[3-[N(4-methoxybenzyl)carbamoyl]propionyl]thiazolidin-4-al] the value was 35 nM; for `O=C[C@@H]1CSCN1C(=O)C1CCCC1C(=O)NCc1ccccc1` (stereo partly drawn) [1 (v), (4R)3-[2-[Nbenzylcarbamoyl)cyclopentanecarbonyl]thiazolidin-4-al], 83 nM.
